Experimental data from the NIST ThermoML archive (doi:10.1021/je901092b).
± gives the expanded uncertainty stated by the source.

Details: 101.33 kPa, Liquid; for mass density: Pycnometric method

| Structure (SMILES) | viscosity (323.15 K) [mPa·s] | mass density (323.15 K) [kg/m3] | viscosity (328.15 K) [mPa·s] | mass density (328.15 K) [kg/m3] | viscosity (333.15 K) [mPa·s] | mass density (333.15 K) [kg/m3] | viscosity (338.15 K) [mPa·s] | mass density (338.15 K) [kg/m3] | viscosity (343.15 K) [mPa·s] | mass density (343.15 K) [kg/m3] | viscosity (348.15 K) [mPa·s] | mass density (348.15 K) [kg/m3] | viscosity (353.15 K) [mPa·s] | mass density (353.15 K) [kg/m3] | viscosity (363.15 K) [mPa·s] | mass density (363.15 K) [kg/m3] | viscosity (373.15 K) [mPa·s] | mass density (373.15 K) [kg/m3] | viscosity (378.15 K) [mPa·s] | mass density (378.15 K) [kg/m3] | further results |
| --- | --- | --- | --- | --- | --- | --- | --- | --- | --- | --- | --- | --- | --- | --- | --- | --- | --- | --- | --- | --- | --- |
| CCCCCCCC[n+]1ccn(C)c1.[I-] [1-methyl-3-octyl-1H-imidazolium iodide] | 296.66 ± 50 | 1240 ± 10 | 229.09 ± 33 | 1234 ± 10 | 174.35 ± 21 | 1230 ± 10 | 138.53 ± 14 | 1228 ± 10 | 104.81 ± 8.5 | 1224 ± 10 | 89.02 ± 5.6 | 1218 ± 10 | 73.17 ± 4 | 1212 ± 10 | 49.6 ± 1.9 | 1206 ± 10 | 35.57 ± 1.4 | 1200 ± 10 | 31.43 ± 1.1 | 1196 ± 10 | viscosity (300.15 K): 1306.3 ± 390 mPa·s; mass density (300.15 K): 1258 ± 10 kg/m3; viscosity (303.15 K): 981.11 ± 260 mPa·s; mass density (303.15 K): 1254 ± 10 kg/m3; viscosity (308.15 K): 726.71 ± 180 mPa·s; mass density (308.15 K): 1250 ± 10 kg/m3; viscosity (313.15 K): 524.3 ± 110 mPa·s; mass density (313.15 K): 1246 ± 10 kg/m3; viscosity (319.15 K): 404.37 ± 77 mPa·s; mass density (319.15 K): 1242 ± 10 kg/m3; viscosity (358.15 K): 58.41 ± 2.5 mPa·s; mass density (358.15 K): 1210 ± 10 kg/m3; viscosity (368.15 K): 43.21 ± 1.7 mPa·s; mass density (368.15 K): 1204 ± 10 kg/m3 |
| CCCCn1cc[n+](C)c1.[I-] [1-butyl-3-methylimidazolium iodide] | 134.23 ± 14 | 1418 ± 10 | 105.34 ± 8.7 | 1414 ± 10 | 81.51 ± 5.3 | 1406 ± 10 | 65.85 ± 3.3 | 1400 ± 10 | 53.43 ± 2.2 | 1398 ± 10 | 44.68 ± 1.9 | 1396 ± 10 | 36.52 ± 1.6 | 1394 ± 10 | 26.11 ± 0.98 | 1388 ± 10 | 20.43 ± 0.64 | 1382 ± 10 | 18.1 ± 0.66 | 1376 ± 10 | viscosity (299.15 K): 593.68 ± 130 mPa·s; mass density (299.15 K): 1434 ± 10 kg/m3; viscosity (304.15 K): 442.64 ± 89 mPa·s; mass density (304.15 K): 1432 ± 10 kg/m3; viscosity (308.15 K): 336.95 ± 61 mPa·s; mass density (308.15 K): 1430 ± 10 kg/m3; viscosity (313.15 K): 227.98 ± 34 mPa·s; mass density (313.15 K): 1426 ± 10 kg/m3; viscosity (318.15 K): 173.86 ± 21 mPa·s; mass density (318.15 K): 1422 ± 10 kg/m3; viscosity (358.15 K): 30.4 ± 1.2 mPa·s; mass density (358.15 K): 1392 ± 10 kg/m3; viscosity (368.15 K): 22.5 ± 0.76 mPa·s; mass density (368.15 K): 1386 ± 10 kg/m3; viscosity (383.15 K): 15.22 ± 0.61 mPa·s; mass density (383.15 K): 1370 ± 10 kg/m3; viscosity (388.15 K): 13.11 ± 0.52 mPa·s; mass density (388.15 K): 1360 ± 10 kg/m3 |
| CCCCCCn1cc[n+](C)c1.[I-] [1-hexyl-3-methylimidazolium iodide] | 245.55 ± 37 | 1318 ± 10 | 190.14 ± 24 | 1316 ± 10 | 146.47 ± 16 | 1314 ± 10 | 116.13 ± 10 | 1312 ± 10 | 88.04 ± 6.1 | 1310 ± 10 | 73.85 ± 3.8 | 1308 ± 10 | 60.63 ± 2.5 | 1306 ± 10 | 42.23 ± 1.6 | 1302 ± 10 | 30.45 ± 1.2 | 1298 ± 10 | 26.62 ± 0.93 | 1296 ± 10 | viscosity (305.15 K): 809.79 ± 200 mPa·s; mass density (305.15 K): 1326 ± 10 kg/m3; viscosity (309.15 K): 600.07 ± 140 mPa·s; mass density (309.15 K): 1324 ± 10 kg/m3; viscosity (314.15 K): 432.98 ± 87 mPa·s; mass density (314.15 K): 1322 ± 10 kg/m3; viscosity (318.15 K): 334.25 ± 59 mPa·s; mass density (318.15 K): 1320 ± 10 kg/m3; viscosity (359.15 K): 48.47 ± 2.1 mPa·s; mass density (359.15 K): 1304 ± 10 kg/m3; viscosity (383.15 K): 23.19 ± 0.82 mPa·s; mass density (383.15 K): 1294 ± 10 kg/m3; viscosity (388.15 K): 20.3 ± 0.74 mPa·s; mass density (388.15 K): 1292 ± 10 kg/m3 |
